# Measurements published in patent US7008905B2, “Method of combating undesired plant growth on cereals” (BASF Aktiengesellschaft, priority 2000, dated 2006).
# Columns and labels:
# Type in all cases: in vivo
# Alopecurus myosuroides = assay: Pre-emergence test, weed control; conditions: 3 weeks after treatment, rating 0-100 (100=death), Table 3
# Method: (§1) The pre-emergence tests involve spraying a liquid formulation of the compound onto the soil in which the seeds of the plant species mentioned above has recently been sown.
# (§2) The soil used in the tests is a prepared horticultural loam. The formulations used in the tests are prepared from solutions of the test compounds in acetone containing 0.4% by weight of an alkylphenol/ethylene oxide condensate available under the trade mark TRITON X-155.
# (§3) In these tests untreated sown soil is used as control. The herbicidal effects of the test compounds are assessed visually three weeks after spraying the soil and are recorded an a 0 to 100 scale. A rating 0 indicates growth as untreated control, a rating 100 indicates death. An increase of 10 unit an the linear scale approximates to a 10% increase in the level of effect. The results of the assessment are set out in Tables 1 to 4.
# Apera spica-venti = assay: Pre-emergence test, weed control; conditions: 3 weeks after treatment, rating 0-100 (100=death), Table 3
# Method: as §1, §2, §3
# Galium aparine = assay: Pre-emergence test, weed control; conditions: 3 weeks after treatment, rating 0-100 (100=death), Table 3
# Method: as §1, §2, §3
# Lamium purpureum = assay: Pre-emergence test, weed control; conditions: 3 weeks after treatment, rating 0-100 (100=death), Table 3
# Method: as §1, §2, §3
# Lolium perenne = assay: Pre-emergence test, weed control; conditions: 3 weeks after treatment, rating 0-100 (100=death), Table 3
# Method: as §1, §2, §3
# Matricaria inodora = assay: Pre-emergence test, weed control; conditions: 3 weeks after treatment, rating 0-100 (100=death), Table 3
# Method: as §1, §2, §3
# Poa annua = assay: Pre-emergence test, weed control; conditions: 3 weeks after treatment, rating 0-100 (100=death), Table 3
# Method: as §1, §2, §3
# Setaria viridis = assay: Pre-emergence test, weed control; conditions: 3 weeks after treatment, rating 0-100 (100=death), Table 3
# Method: as §1, §2, §3
# Stellaria media = assay: Pre-emergence test, weed control; conditions: 3 weeks after treatment, rating 0-100 (100=death), Table 3
# Method: as §1, §2, §3
# Veronica persica = assay: Pre-emergence test, weed control; conditions: 3 weeks after treatment, rating 0-100 (100=death), Table 3
# Method: as §1, §2, §3
# PAPRH = assay: Pre-emergence test, weed control; conditions: 3 weeks after treatment, rating 0-100 (100=death), Table 3
# Method: as §1, §2
# as §3, with “These acetone solutions are diluted with water and the resulting formulations applied at dosage levels corresponding to 15 g, 30 g, 60 g, 120 g or 240 g of active material per hectare in a volume equivalent to 900 liters per hectare. In” for “In”
# VIOAR = assay: Pre-emergence test, weed control; conditions: 3 weeks after treatment, rating 0-100 (100=death), Table 3
# Method: as §1, §2
# as §3, with “These acetone solutions are diluted with water and the resulting formulations applied at dosage levels corresponding to 15 g, 30 g, 60 g, 120 g or 240 g of active material per hectare in a volume equivalent to 900 liters per hectare. In” for “In”
# [1] = tested on: Triticum aestivum variety “Kanzler”; assay: Pre-emergence test, selectivity; conditions: 3 weeks after treatment, rating 0-100 (100=death), Table 4
# Method: as §1, §2
# as §3, with “These acetone solutions are diluted with water and the resulting formulations applied at dosage levels corresponding to 15 g, 30 g, 60 g, 120 g or 240 g of active material per hectare in a volume equivalent to 900 liters per hectare. In” for “In”
# [2] = tested on: Triticum aestivum variety “Monopol”; assay: Pre-emergence test, selectivity; conditions: 3 weeks after treatment, rating 0-100 (100=death), Table 4
# Method: as §1, §2
# as §3, with “These acetone solutions are diluted with water and the resulting formulations applied at dosage levels corresponding to 15 g, 30 g, 60 g, 120 g or 240 g of active material per hectare in a volume equivalent to 900 liters per hectare. In” for “In”
# wheat = assay: Pre-emergence test, tolerance in wheat; conditions: in vivo
# Method: as §1, §2
# as §3, with “These acetone solutions are diluted with water and the resulting formulations applied at dosage levels corresponding to 15 g, 30 g, 60 g, 120 g or 240 g of active material per hectare in a volume equivalent to 900 liters per hectare. In” for “In”
compound,measurement,setting,value
Cc1cc(Oc2ccnc(Cl)c2)nc(-c2ccc(C(F)(F)F)cc2)n1 [REF-6],ALOMY weed control rating,Alopecurus myosuroides; 0.030 kg/ha,30
same,ALOMY weed control rating,Alopecurus myosuroides; 0.060 kg/ha,60
same,ALOMY weed control rating,Alopecurus myosuroides; 0.120 kg/ha,97
same,ALOMY weed control rating,Alopecurus myosuroides; 0.240 kg/ha,99
same,APESV weed control rating,Apera spica-venti; 0.030 kg/ha,100
same,APESV weed control rating,Apera spica-venti; 0.060 kg/ha,100
same,APESV weed control rating,Apera spica-venti; 0.120 kg/ha,100
same,APESV weed control rating,Apera spica-venti; 0.240 kg/ha,100
same,GALAP weed control rating,Galium aparine; 0.120 kg/ha,65
same,GALAP weed control rating,Galium aparine; 0.240 kg/ha,97
same,LAMPU weed control rating,Lamium purpureum; 0.030 kg/ha,85
same,LAMPU weed control rating,Lamium purpureum; 0.060 kg/ha,100
same,LAMPU weed control rating,Lamium purpureum; 0.120 kg/ha,100
same,LAMPU weed control rating,Lamium purpureum; 0.240 kg/ha,100
same,LOLPE weed control rating,Lolium perenne; 0.030 kg/ha,95
same,LOLPE weed control rating,Lolium perenne; 0.060 kg/ha,100
same,LOLPE weed control rating,Lolium perenne; 0.120 kg/ha,100
same,LOLPE weed control rating,Lolium perenne; 0.240 kg/ha,100
same,MATIN weed control rating,Matricaria inodora; 0.030 kg/ha,99
same,MATIN weed control rating,Matricaria inodora; 0.060 kg/ha,100
same,MATIN weed control rating,Matricaria inodora; 0.120 kg/ha,100
same,MATIN weed control rating,Matricaria inodora; 0.240 kg/ha,100
same,POAAN weed control rating,Poa annua; 0.030 kg/ha,100
same,POAAN weed control rating,Poa annua; 0.060 kg/ha,100
same,POAAN weed control rating,Poa annua; 0.120 kg/ha,100
same,POAAN weed control rating,Poa annua; 0.240 kg/ha,100
same,SETVI weed control rating,Setaria viridis; 0.030 kg/ha,100
same,SETVI weed control rating,Setaria viridis; 0.060 kg/ha,100
same,SETVI weed control rating,Setaria viridis; 0.120 kg/ha,100
same,SETVI weed control rating,Setaria viridis; 0.240 kg/ha,100
same,STEME weed control rating,Stellaria media; 0.030 kg/ha,97
same,STEME weed control rating,Stellaria media; 0.060 kg/ha,100
same,STEME weed control rating,Stellaria media; 0.120 kg/ha,100
same,STEME weed control rating,Stellaria media; 0.240 kg/ha,100
same,VERPE weed control rating,Veronica persica; 0.030 kg/ha,96
same,VERPE weed control rating,Veronica persica; 0.060 kg/ha,100
same,VERPE weed control rating,Veronica persica; 0.120 kg/ha,100
same,VERPE weed control rating,Veronica persica; 0.240 kg/ha,100
same,PAPRH weed control rating,PAPRH; 0.030 kg/ha,100
same,PAPRH weed control rating,PAPRH; 0.060 kg/ha,100
same,PAPRH weed control rating,PAPRH; 0.120 kg/ha,100
same,PAPRH weed control rating,PAPRH; 0.240 kg/ha,100
same,VIOAR weed control rating,VIOAR; 0.030 kg/ha,99
same,VIOAR weed control rating,VIOAR; 0.060 kg/ha,99
same,VIOAR weed control rating,VIOAR; 0.120 kg/ha,99
same,VIOAR weed control rating,VIOAR; 0.240 kg/ha,99
same,TRZAWK rating (Selectivity),[1]; 0.060 kg/ha,10
same,TRZAWK rating (Selectivity),[1]; 0.120 kg/ha,12
same,TRZAWK rating (Selectivity),[1]; 0.240 kg/ha,25
same,TRZAWM rating (Selectivity),[2]; 0.030 kg/ha,1
same,TRZAWM rating (Selectivity),[2]; 0.060 kg/ha,8
same,TRZAWM rating (Selectivity),[2]; 0.120 kg/ha,15
same,TRZAWM rating (Selectivity),[2]; 0.240 kg/ha,25
same,maximum tolerated dose in wheat / dose at which sufficiently selective in wheat,wheat,120 g/ha
